Source: patent publication US20200284781A1, “TEST METHOD OF COMBINED TOXICITY FOR CH[…] BUTACHLOR” (priority 2019, published 2020)
In brackets after ≈: the same amount, converted by molar mass.

Assays:
[1] = Single toxicity of chlorpyrifos and butachlor to zebrafish embryos; format: in vivo; details: in vivo, other: immersion in test solution (waterborne exposure), read-out: LC50 (95% CI); for LC50 at 24 h: exposure time 24 h; for LC50 at 48 h: exposure time 48 h; for LC50 at 72 h: exposure time 72 h; for LC50 at 96 h: exposure time 96 h
Protocol: (§1) D. Toxicity of pesticides to zebrafish embryos: On the basis of clearing the effective concentration range of pesticides in pre-tests, diluting the pesticide stock solution with standard dilution water to 5-7 concentrations with a geometrical ratio, and using a 24 well cell culture dish for exposure apparatus, the volume of each well is 3 mL, 20 wells are the same experimental concentration, and the remaining 4 wells are blank controls; during the experiment, of test solution and 1 randomly selected 3 hpf (hourpost-fertilization) normal fertilized embryo at the embryo shield stage were put into every well, set up 3 replicates at each concentration, every culture dish as a replicate, and incubating in a multifunctional incubator at 26±1° C. with a photoperiod of 14 h (light): 10 h (dark);
(§2) Preferably, in the step D, the test solution needs to be replaced every 24 h, observing and microscopical observing the CK group and the exposed group every 24 h, recording the number of embryos with normal development and malformations, and calculating the number of embryos hatched and larvae malformations, the experiment lasts 96 hours.
as §1, with “24-well” for “24 well”, “poisoning” for “exposure”, “experiment, 2 mL” for “experiment,”, “C. V:” for “C.”
(§3) H. Data processing: Calculating the LC50 value of pesticides on larvae and their 95% confidence limits by probit analysis based on the number and time of dead fish larvae, and using 95% confidence limit of LC50 as the criterion to determine whether the toxicity difference of different drugs is significant, LC50≤0.1 mg a.i. L^−1, is hypertoxic; 0.1<LC50≤1.0 mg a.i. L^−1, is high toxicity; 1.0<LC50≤10.0 mg a.i. L^−1, is medium toxicity; LC50>10.0 mg a.i. L^−1, is low toxicity, the maximum allowable concentration of MPC employs 100 as the protection factor, the formula is: MPC=96 h-LC50/100, to get the maximum allowable concentration of a poison.
as §2, with “Wherein” for “Preferably,”, “hours, for structural analysis.” for “hours.”

zebrafish embryos = test: as above; format: in vivo
Protocol: as §1, §2
as §1, with “24-well” for “24 well”, “poisoning” for “exposure”, “experiment, 2 mL” for “experiment,”, “C. V:” for “C.”
as §3
as §2, with “Wherein” for “Preferably,”, “hours, for structural analysis.” for “hours.”

[2] = Single toxicity of chlorpyrifos and butachlor to zebrafish larvae; details: in vivo, other: immersion in test solution (waterborne exposure), read-out: LC50 (95% CI); for LC50 at 24 h: exposure time 24 h; for LC50 at 48 h: exposure time 48 h; for LC50 at 72 h: exposure time 72 h; for LC50 at 96 h: exposure time 96 h
Protocol: (§4) H. Data processing: Calculating the LC50 value of pesticides on larvae and their 95% confidence limits by probit analysis based on the number and time of dead fish larvae, and using 95% confidence limit of LC50 as the criterion to determine whether the toxicity difference of different pesticides is significant, LC50≤0.1 mg a.i. L^−1, is hypertoxic; 0.1<LC50≤1.0 mg a.i. L^−1, is high toxicity; 1.0<LC50≤[…] a.i. L^−1, is medium toxicity; LC50>10.0 mg a.i. L^−1 is low toxicity. The maximum allowable concentration of MPC employs 100 as the protection factor, the formula is: MPC=96 h-LC50/100, to get the maximum allowable concentration of a poison.
as §3
(§5) Wherein the larvae in the migratory period in step E refer to fish 120 h after fertilization of eggs, for improving the accuracy of the test.

[3] = Single toxicity of chlorpyrifos and butachlor to Japanese medaka larvae; details: in vivo, other: immersion in test solution (waterborne exposure), read-out: LC50 (95% CI); for LC50 at 24 h: exposure time 24 h; for LC50 at 48 h: exposure time 48 h; for LC50 at 72 h: exposure time 72 h; for LC50 at 96 h: exposure time 96 h
Protocol: as §4, §3, §5

[4] = Combined toxicity of chlorpyrifos and butachlor to zebrafish larvae; details: in vivo, read-out: LC50 (95% CI) of the component in the mixture
Protocol: (§6) F. Combined toxicity test: The toxicity test is performed on zebrafish larvae and Japanese medaka larvae, the test procedure is as follows:
a. Zebrafish larvae: The LC50 value of zebrafish larvae with a single pesticide for 96 h is a toxic unit, and 5-7 different concentrations with a geometrical ratio, test method and calculation of LC50 value of each exposure time are the same as 1.4.2;
as §3

[5] = Combined toxicity of chlorpyrifos and butachlor to Japanese medaka larvae; details: in vivo
Protocol: as §6
(§7) b. Japanese medaka: A single pesticide is used to measure the LC50 value of Japanese medaka for 96 hours, mixing chlorpyrifos and butachlor to form binary mixed systems with different ratios of 1:4, 2:3, 1:1, 3:2 and 4:1, according to the pre-experiment results, 5-7 different concentrations are set at equal logarithmic intervals to determine the combined toxicity of the mixed system to Japanese medaka, the method is the same as the determination of single toxicity, the total concentration of the binary mixture is the sum of the concentrations of the two components;
as §7, with “different concentrations with a geometrical ratio are set” for “different concentrations are set”, “to Japanese medaka the method” for “to Japanese medaka, the method”, “as the determination, of single” for “as the determination of single”
as §3

[6] = Japanese medaka larvae, chlorpyrifos:butachlor ratio 4:1, 24 h, read-out: LC50 (95% CI) of the component in the mixture
[7] = Japanese medaka larvae, chlorpyrifos:butachlor ratio 4:1, 96 h, read-out: LC50 (95% CI) of the component in the mixture
[8] = other: immersion in test solution (waterborne exposure), Japanese medaka larvae, chlorpyrifos:butachlor ratio 1:1, 24 h, read-out: LC50 (95%) CI of the component in the mixture
[9] = other: immersion in test solution (waterborne exposure), Japanese medaka larvae, chlorpyrifos:butachlor ratio 1:1, 48 h, read-out: LC50 (95%) CI of the component in the mixture
[10] = other: immersion in test solution (waterborne exposure), Japanese medaka larvae, chlorpyrifos:butachlor ratio 1:1, 72 h, read-out: LC50 (95%) CI of the component in the mixture
[11] = other: immersion in test solution (waterborne exposure), Japanese medaka larvae, chlorpyrifos:butachlor ratio 1:1, 96 h, read-out: LC50 (95%) CI of the component in the mixture
[12] = other: immersion in test solution (waterborne exposure), Japanese medaka larvae, chlorpyrifos:butachlor ratio 4:1, 48 h, read-out: LC50 (95% CI) of the component in the mixture
[13] = other: immersion in test solution (waterborne exposure), Japanese medaka larvae, chlorpyrifos:butachlor ratio 4:1, 72 h, read-out: LC50 (95% CI) of the component in the mixture
[14] = other: immersion in test solution (waterborne exposure), chlorpyrifos:butachlor ratio 1:4, 24 h, read-out: LC50 (95% CI) of the component in the mixture
[15] = other: immersion in test solution (waterborne exposure), chlorpyrifos:butachlor ratio 1:4, 48 h, read-out: LC50 (95% CI) of the component in the mixture
[16] = other: immersion in test solution (waterborne exposure), chlorpyrifos:butachlor ratio 1:4, 72 h, read-out: LC50 (95% CI) of the component in the mixture
[17] = other: immersion in test solution (waterborne exposure), chlorpyrifos:butachlor ratio 1:4, 96 h, read-out: LC50 (95% CI) of the component in the mixture
[18] = other: immersion in test solution (waterborne exposure), chlorpyrifos:butachlor ratio 2:3, 24 h, read-out: LC50 (95% CI) of the component in the mixture
[19] = other: immersion in test solution (waterborne exposure), chlorpyrifos:butachlor ratio 2:3, 48 h, read-out: LC50 (95% CI) of the component in the mixture
[20] = other: immersion in test solution (waterborne exposure), chlorpyrifos:butachlor ratio 2:3, 72 h, read-out: LC50 (95% CI) of the component in the mixture
[21] = other: immersion in test solution (waterborne exposure), chlorpyrifos:butachlor ratio 2:3, 96 h, read-out: LC50 (95% CI) of the component in the mixture
[22] = other: immersion in test solution (waterborne exposure), chlorpyrifos:butachlor ratio 3:2, 24 h, read-out: LC50 (95% CI) of the component in the mixture
[23] = other: immersion in test solution (waterborne exposure), chlorpyrifos:butachlor ratio 3:2, 48 h, read-out: LC50 (95% CI) of the component in the mixture
[24] = other: immersion in test solution (waterborne exposure), chlorpyrifos:butachlor ratio 3:2, 72 h, read-out: LC50 (95% CI) of the component in the mixture
[25] = other: immersion in test solution (waterborne exposure), chlorpyrifos:butachlor ratio 3:2, 96 h, read-out: LC50 (95% CI) of the component in the mixture

## CCCCOCN(C(=O)CCl)c1c(CC)cccc1CC [Butachlor, butachlor]
[1]
  LC50 at 24 h: 32.8 µg/mL (≈ 105 µM)
  LC50 at 48 h: 5.82 µg/mL (≈ 18.7 µM)
  LC50 at 72 h: 4.42 µg/mL (≈ 14.2 µM)
  LC50 at 96 h: 1.93 µg/mL (≈ 6.19 µM)
Zebrafish embryos
  effects of exposure on zebrafish embryo development: egg coagulation, pericardial edema, yolk sac edema, and spinal curvature
Zebrafish embryos; 96 h
  times more toxic to zebrafish embryos than chlorpyrifos: 6.75 times
[2]
  LC50 at 24 h: 0.67 µg/mL (≈ 2.15 µM)
  LC50 at 48 h: 0.59 µg/mL (≈ 1.89 µM)
  LC50 at 72 h: 0.51 µg/mL (≈ 1.64 µM)
  LC50 at 96 h: 0.44 µg/mL (≈ 1.41 µM)
[3]
  LC50 at 24 h: 0.85 µg/mL (≈ 2.73 µM)
  LC50 at 48 h: 0.72 µg/mL (≈ 2.31 µM)
  LC50 at 72 h: 0.54 µg/mL (≈ 1.73 µM)
  LC50 at 96 h: 0.43 µg/mL (≈ 1.38 µM)
[4]; equitoxic ratio
  LC50 at 24 h: 0.91 µg/mL
  LC50 at 48 h: 0.72 µg/mL
  LC50 at 72 h: 0.45 µg/mL
  LC50 at 96 h: 0.26 µg/mL
[4]; equivalent concentration (1:1)
  LC50 at 24 h: 0.18 µg/mL
  LC50 at 48 h: 0.16 µg/mL
  LC50 at 72 h: 0.14 µg/mL
  LC50 at 96 h: 0.11 µg/mL
[5]; [6]
  LC50 at 24 h: 0.2 µg/mL
[5]; [7]
  LC50 at 96 h: 0.036 µg/mL
[5]; [8]
  LC50 at 24 h: 1.53 µg/mL
[5]; [9]
  LC50 at 48 h: 1.22 µg/mL
[5]; [10]
  LC50 at 72 h: 0.93 µg/mL
[5]; [11]
  LC50 at 96 h: 0.81 µg/mL
[5]; [12]
  LC50 at 48 h: 0.15 µg/mL
[5]; [13]
  LC50 at 72 h: 0.11 µg/mL
[5]; [14]
  LC50 at 24 h: 2.29 µg/mL
[5]; [15]
  LC50 at 48 h: 1.3 µg/mL
[5]; [16]
  LC50 at 72 h: 1.14 µg/mL
[5]; [17]
  LC50 at 96 h: 0.88 µg/mL
[5]; [18]
  LC50 at 24 h: 2.29 µg/mL
[5]; [19]
  LC50 at 48 h: 0.66 µg/mL
[5]; [20]
  LC50 at 72 h: 0.43 µg/mL
[5]; [21]
  LC50 at 96 h: 0.35 µg/mL
[5]; [22]
  LC50 at 24 h: 1.48 µg/mL
[5]; [23]
  LC50 at 48 h: 1.29 µg/mL
[5]; [24]
  LC50 at 72 h: 0.87 µg/mL
[5]; [25]
  LC50 at 96 h: 0.66 µg/mL

## CCOP(=S)(OCC)Oc1nc(Cl)c(Cl)cc1Cl [Chlorpyrifos, chlorpyrifos]
[1]
  LC50 at 24 h: 170 µg/mL (≈ 485 µM)
  LC50 at 48 h: 120 µg/mL (≈ 341 µM)
  LC50 at 72 h: 63.4 µg/mL (≈ 181 µM)
  LC50 at 96 h: 13 µg/mL (≈ 37.2 µM)
Zebrafish embryos
  effects of exposure on zebrafish embryo development: egg coagulation, pericardial edema, yolk sac edema, and spinal curvature
[2]
  LC50 at 24 h: 0.67 µg/mL (≈ 1.91 µM)
  LC50 at 48 h: 0.39 µg/mL (≈ 1.11 µM)
  LC50 at 72 h: 0.34 µg/mL (≈ 0.97 µM)
  LC50 at 96 h: 0.27 µg/mL (≈ 0.77 µM)
[3]
  LC50 at 24 h: 0.75 µg/mL (≈ 2.14 µM)
  LC50 at 48 h: 0.4 µg/mL (≈ 1.14 µM)
  LC50 at 72 h: 0.35 µg/mL (≈ 0.998 µM)
  LC50 at 96 h: 0.24 µg/mL (≈ 0.685 µM)
[4]; equitoxic ratio
  LC50 at 24 h: 0.55 µg/mL
  LC50 at 48 h: 0.43 µg/mL
  LC50 at 72 h: 0.27 µg/mL
  LC50 at 96 h: 0.16 µg/mL
[4]; equivalent concentration (1:1)
  LC50 at 24 h: 0.18 µg/mL
  LC50 at 48 h: 0.16 µg/mL
  LC50 at 72 h: 0.14 µg/mL
  LC50 at 96 h: 0.11 µg/mL
[5]; [6]
  LC50 at 24 h: 0.8 µg/mL
[5]; [7]
  LC50 at 96 h: 0.14 µg/mL
[5]; [8]
  LC50 at 24 h: 1.53 µg/mL
[5]; [9]
  LC50 at 48 h: 1.22 µg/mL
[5]; [10]
  LC50 at 72 h: 0.93 µg/mL
[5]; [11]
  LC50 at 96 h: 0.81 µg/mL
[5]; [12]
  LC50 at 48 h: 0.61 µg/mL
[5]; [13]
  LC50 at 72 h: 0.43 µg/mL
[5]; [14]
  LC50 at 24 h: 0.57 µg/mL
[5]; [15]
  LC50 at 48 h: 0.33 µg/mL
[5]; [16]
  LC50 at 72 h: 0.28 µg/mL
[5]; [17]
  LC50 at 96 h: 0.22 µg/mL
[5]; [18]
  LC50 at 24 h: 1.52 µg/mL
[5]; [19]
  LC50 at 48 h: 0.44 µg/mL
[5]; [20]
  LC50 at 72 h: 0.28 µg/mL
[5]; [21]
  LC50 at 96 h: 0.23 µg/mL
[5]; [22]
  LC50 at 24 h: 2.23 µg/mL
[5]; [23]
  LC50 at 48 h: 1.94 µg/mL
[5]; [24]
  LC50 at 72 h: 1.31 µg/mL
[5]; [25]
  LC50 at 96 h: 0.99 µg/mL
